In ChEMBL document CHEMBL5209575, “Membrane potential based assay for SLC1A1 using HEK-293 SLC1A1 OE cells” (2022):

Target: T1, Excitatory amino acid transporter 3 (Homo sapiens, UniProt P43005)
T1 sequence (P43005 whole entry): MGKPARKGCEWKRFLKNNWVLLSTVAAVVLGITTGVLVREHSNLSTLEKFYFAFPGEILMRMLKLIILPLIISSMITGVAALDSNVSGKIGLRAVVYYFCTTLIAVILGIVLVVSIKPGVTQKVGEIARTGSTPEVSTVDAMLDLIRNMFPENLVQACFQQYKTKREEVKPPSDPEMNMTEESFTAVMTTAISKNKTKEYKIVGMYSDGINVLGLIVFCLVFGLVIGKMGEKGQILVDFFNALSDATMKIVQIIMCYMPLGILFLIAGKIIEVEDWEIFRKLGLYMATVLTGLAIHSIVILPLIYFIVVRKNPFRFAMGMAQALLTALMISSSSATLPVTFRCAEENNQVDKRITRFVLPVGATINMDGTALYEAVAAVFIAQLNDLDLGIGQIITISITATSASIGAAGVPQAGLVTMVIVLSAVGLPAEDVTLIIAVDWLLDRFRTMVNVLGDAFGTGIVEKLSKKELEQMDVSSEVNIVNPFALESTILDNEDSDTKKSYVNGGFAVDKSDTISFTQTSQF
Experiment: Substrate uptake by the Excitatory Amino Acid Transporter 3 (EAAT3, SLC1A1) as assessed by the fluorescent FLIPR membrane potential dye in HEK-293 JumpIN-SLC1A1 cells (PubChem AID: 1794812)
Type: functional, cell-based, HEK293

Compound	EC50 (hek293)	EC50 (read-out: EC50) [µM]
N[C@@H](CC(=O)O)C(=O)O [ASPARTIC ACID]	Substrate: The Commpound Is Eliciting A Specific Response, But A Broader Concentration Range Is Needed To Calculate A Correct Ec50	
N[C@@H](CS)C(=O)O [CYSTEINE]		161
N[C@@H](CCC(=O)O)C(=O)O [GLUTAMIC ACID]	Substrate: The Commpound Is Eliciting A Specific Response, But A Broader Concentration Range Is Needed To Calculate A Correct Ec50	
